This note sets out measurements from patent US9101600B2, “Compounds as RORγt modulators and uses thereof” (New York University, priority 2010, dated 2015).

In experiment [1] the test system is mouse Th17 cell differentiation. Description: Cytokine induced mouse Th17 cell differentiation (IL17a production, FACS). Format: cell-based. On the procedure: Cytokine induced mouse Th17 cells differentiation. Effects on mouse endogenous RORγt in a relevant physiological setting were determined by testing compounds in the Th17 cell differentiation assay. […] Th1 or regulatory T cell differentiation was used as a counter-screen method to select specific compounds that only affect Th17 cell differentiation without having pleiotrophic effects on general T cell proliferation or cytokine production.
Naive CD4 T cells were cultured with CD3/CD28 stimulatory antibodies in presence of TGFβ and IL6. Compounds were added on Day 1 and cells were analyzed on Day 4. Numbers shown in Table 3 indicate the percentage of mouse Th17 cells.
CD25^−, CD62L^+, and CD44^int-high cells were sorted from B6 mice.

In experiment [2] the target is T1, RORγ/γt (Mus musculus, UniProt P51450, T352K). The experiment is described as follows: RORγ/γt-luc reporter S2 cell assay / HTS (firefly luciferase). The settings on record: for 80% Inhib. @: RORγ/γt reporter, S2 cells, concentration for 80% inhibition; for RORγ/γt reporter activity (in words): S2 cell reporter; for Curve Class: RORγ/γt HTS concentration response curve class.
T1 sequence (P51450 with tags, fused parts or gaps T352K): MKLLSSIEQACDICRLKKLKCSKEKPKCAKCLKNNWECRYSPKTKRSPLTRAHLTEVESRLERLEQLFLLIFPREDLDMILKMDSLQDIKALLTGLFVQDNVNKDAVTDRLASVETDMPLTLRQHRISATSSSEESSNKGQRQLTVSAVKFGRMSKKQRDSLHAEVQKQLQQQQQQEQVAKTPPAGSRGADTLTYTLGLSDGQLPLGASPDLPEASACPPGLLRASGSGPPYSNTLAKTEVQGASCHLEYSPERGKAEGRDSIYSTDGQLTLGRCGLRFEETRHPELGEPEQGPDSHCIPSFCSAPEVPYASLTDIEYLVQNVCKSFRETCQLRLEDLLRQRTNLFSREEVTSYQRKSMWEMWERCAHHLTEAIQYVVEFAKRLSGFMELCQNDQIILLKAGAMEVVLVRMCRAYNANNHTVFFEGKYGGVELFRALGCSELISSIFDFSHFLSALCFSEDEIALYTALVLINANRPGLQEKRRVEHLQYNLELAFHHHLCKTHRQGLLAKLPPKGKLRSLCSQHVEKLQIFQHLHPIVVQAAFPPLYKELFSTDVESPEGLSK
Description: The Drosophila S2 cell line was originally purchased from Invitrogen and was maintained in Schneider's medium supplemented with 10% heat-inactivated bovine fetal calf serum and antibiotics (Invitrogen). Gal4 DNA binding domain (G4 DBD) corresponding to amino acids 1 through 147 of Gal4 protein was PCR amplified to make a fusion construct with mouse RORγt (amino acids 79 to the carboxyl terminal end) lacking its DNA binding domain. The resulting chimeric gene was subcloned into the copper inducible pMT/V5-His A vector (available from Invitrogen). In a similar manner, Gal4 fusion constructs were prepared with mouse RORα (amino acids 142 to end) or Drosophila DHR3 (amino acids 120 to end).
In order to generate stable cell lines, cells were co-transfected with pMT-G4 DBD-RORγt, pMT-G4 DBD-RORα, pMT-G4 DBD-DHR3, or pMT-G4DBDVP16 and pHygro plasmids (Invitrogen) and screened for resistant colonies in the presence of hygromycin (0.3 mg/mL). More than 150 independent RORγ stable clones with luciferase reporters (pMt-RORγ_luc) were tested for their suitability for the high-throughput screening (HTS) based on the following criteria: high signal-to background ratio in 384- and 1,536-well plates, their high induction rate upon the addition of copper, and RORγ/γt specificity probed by the dsRORγ- or RORγ/γt antagonist-mediated suppression. Positive clones were further transfected with pUAST-firefly luciferase, polIII-Renilla luciferase, and pCoPuro (Iwaki, Figuera et al. 2003) (“Rapid selection of Drosophila S2 cells with the puromycin resistance gene.” Biotechniques 35(3): 482-4, 486.) and selected with puromycin (2.5 ug/ml). […] Using similar methods, stable clones with genomic integration of the luciferase reporters and other reporters were generated such as pMT-RORα_luc, pMT-DHR3_luc, or pMT-VP16_luc.
600 G4 DBD-RORγ/γt-luc reporter (#25) or G4 DBD-VP16-luc reporter cells were distributed into each well of 1,536-well white bottom plates in 4 μl S2 cell culture volume containing hygromicin (300 μg/ml) and puromycin (2 μg/ml). Small compounds in seven different concentrations range from 46 μM to 1.7 nM were pin-transferred (23 nl) by a robot (Inglese et al., 2006, Proc. Natl. Acad. Sci. 103:11473-8). […] After 20-hour incubation at ambient temperature, 1.5 μl firefly luciferase detection mix was added and the luciferase activities were measured in 10 min. ViewLux luminometers were used for measuring luciferase signal.
Since their cognate DNA binding sites were not well characterized, the DNA binding domains (DBD) of RORγ/γt, RORα(mouse homolog for PORγ), and DHR3 (Drosophila orthologue for ROR family proteins) were replaced with the heterologous yeast GAL4 DBD. The transcriptionally active domain of general transcriptional activator VP16 was also fused with GAL4 DBD.

Experiment [3] has as its system VP16-luc, RORα-luc, and DHR3-luc reporter S2 cell lines. The experiment is described as follows: S2 cell reporter specificity test on other closely related reporters. The experiment is classed as cell-based. The settings on record: S2 cell assay.
Experiment [4] deals with T1, RORγ/γt. The experiment is described as follows: Small-scale screening, G4BD-RORγt stable S2 cells with transient transfection of two luciferase constructs. Format: cell-based. The arrangement: expressed in transfected cells. On the procedure:
Promega Dual-Glo system is widely used for HTS as the luciferase substrates. Cell culture medium was reduced to the final volume of 10 μl or less and 10 μl of Dual-glo and 10 μl of Stop-glo luciferase substrates were added in a sequencial manner (Promega). Firefly and Renilla luciferase activity was determined by measuring luminescence signals using an automated 384-well plate reader equipped with multiple stack units (such as the Analyst GT or Envision plate readers).

The next experiment has as its target T2, RORγ (Homo sapiens, UniProt P51449).
T2 construct: expressed in transfected cells; host or cells: human peripheral blood naive CD4+ T cells, virally transduced
T2 sequence (P51449 1-497 isoform P51449-2): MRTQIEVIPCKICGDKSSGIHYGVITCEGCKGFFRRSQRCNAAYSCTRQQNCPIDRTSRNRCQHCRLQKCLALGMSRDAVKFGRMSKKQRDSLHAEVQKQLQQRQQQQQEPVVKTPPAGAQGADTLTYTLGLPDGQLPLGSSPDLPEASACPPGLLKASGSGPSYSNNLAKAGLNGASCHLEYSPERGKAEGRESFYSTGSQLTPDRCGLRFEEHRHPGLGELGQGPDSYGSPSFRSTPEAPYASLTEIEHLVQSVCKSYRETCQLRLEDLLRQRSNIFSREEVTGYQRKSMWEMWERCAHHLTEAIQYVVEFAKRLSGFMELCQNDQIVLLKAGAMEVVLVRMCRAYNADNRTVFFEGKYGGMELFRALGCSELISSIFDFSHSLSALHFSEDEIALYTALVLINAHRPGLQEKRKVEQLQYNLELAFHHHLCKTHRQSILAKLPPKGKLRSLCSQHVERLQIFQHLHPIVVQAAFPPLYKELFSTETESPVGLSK
The experiment is described as follows: RORγ overexpression dependent IL17a production in human CD4 T cells (RORγt-IRES-GFP transduced). The note with it: human peripheral blood naive CD4+ T cells, transduced day 1, analyzed day 6. The experiment is classed as cell-based. Here is the method:
ROR dependent Th17 cell differentiation.
GFP expressing cells were gated for analysis. DMSO or compounds were added 6-8 hours after viral transduction.

The test system of experiment [5] is human naive cord blood T cells. Description: Human Th17 cell differentiation, naive cord blood T cells (IL-17a and IFN-γ, flow cytometry). Format: cell-based. The note with it: six days, IL2, IL23, ILβ, TGFβ. The text has this:
Human Th17 cell differentiation. Compound effects on human RORγt will be tested by treating human cord blood CD4 T cells with select compounds to determine if such compounds alter differentiation into Th17 lineages.
(In general: In flow cytometry, cells or beads pass a laser one at a time.)

Setting [6] is: 5 μM, DMSO 25% Th17, compound added Day 1, analyzed Day 4.
Setting [7] is: 20 μM, DMSO 17% Th17, compound added Day 1, analyzed Day 4.
Where [8] appears, read: at 10 uM (Table 4, printed in 20 μM column).

The IC50 is the concentration that gives 50% inhibition. On to `COc1ccc(OC)c(NC(=S)N(CCc2c(C)[nH]c3ccccc23)Cc2cccs2)c1` [MLS000696943-02], for which the “percentage of mouse Th17 cells (IL17a production)” value (shortened to “percentage of mouse Th17 cells”) in experiment [1] (setting [6]) stood at 13.9%. For the same compound, in experiment [1] (setting [7]), the “percentage of mouse Th17 cells” value is 3.1%. In addition, at RORγ/γt [2], the IC50 amounted to 13400 nM and the “80% Inhib. @” value came out at 35.57 µM.

Consider `C=C1NN=C(c2ccccc2Br)N1N=Cc1ccc(N(CC)CC)cc1` [MLS000767819-02], for which the “activity of other closely related reporters (in words)” value in experiment [3] is listed as “without having effects”. In addition, the “percentage of mouse Th17 cells” value in experiment [1] (setting [7]) came to 10.2%. For the same compound, at RORγ/γt [2], the 50% inhibitory concentration (IC50) worked out at 2780 nM, the “80% Inhib. @” value was 7.562 µM and the “RORγ/γt reporter activity (in words)” value was “suppression of RORγ reporter activity”.

In the case of `O=C(NC(=S)Nc1nc(-c2ccccc2)cs1)c1cccnc1` [MLS000592121-02], the “percentage of mouse Th17 cells” value in experiment [1] (setting [6]) and in experiment [1] (setting [7]) was 27.7% each time. This compound also came in with an IC50 against RORγ/γt [2] of 17800 nM. Also, the “80% Inhib. @” value at RORγ/γt [2] was found to be 62.17 µM.

With `C[C@H]1O[C@@H](O[C@H]2[C@@H](O)C[C@H](O[C@H]3[C@@H](O)C[C@H](O[C@H]4CC[C@@]5(C)[C@H](CC[C@@H]6[C@@H]5CC[C@]5(C)[C@@H](C7=CC(=O)OC7)CC[C@]65O)C4)O[C@@H]3C)O[C@@H]2C)C[C@H](O)[C@@H]1O` [digitoxin], the “RORγ/γt antagonist identification (in words)” value on RORγ/γt [4] is “specific RORγ/γt antagonists”.

In the case of `CO[C@H]1[C@@H](O)CC(OC2[C@@H](O)CC(OC3[C@@H](O)C[C@H](OC4CC[C@@]5(C)C(CCC6C5CC(O)[C@]5(C)[C@H](C7=CC(=O)OC7)CCC65O)C4)O[C@@H]3C)O[C@@H]2C)O[C@@H]1C` (stereo partly drawn) [NCGC00168746-02], the “percentage of mouse Th17 cells” value in experiment [1] (setting [6]) is given as 4.5%; in experiment [1] (setting [7]), 1.2%. At RORγ/γt [2], this compound yielded an IC50 of 1990 nM. Also, the “80% Inhib. @” value on RORγ/γt [2] is 6.27 µM.

As to `CCOC(=O)c1sc(NC(=O)c2cc3c(s2)CCC(C)C3)nc1C` (stereo not drawn) [MLS000566729-02], the figures for the “percentage of mouse Th17 cells” value in experiment [1] (setting [6]) and in experiment [1] (setting [7]) were 16.3% and 12.1%, respectively. Also, the IC50 against RORγ/γt [2] worked out at 134 nM. The “80% Inhib. @” value on RORγ/γt [2] came out at 0.4389 µM.

For the compound `O=C(CCCN1C(=O)/C(=C/c2ccccc2Cl)SC1=S)Nc1cccnc1` [MLS001034558-02], in experiment [1] (setting [6]), the “percentage of mouse Th17 cells” value turned out to be 14.3%. In addition, the “percentage of mouse Th17 cells” value in experiment [1] (setting [7]) is listed as “dead”. In addition, on RORγ/γt [2], inhibition was half-maximal at 1600 nM (IC50) and the “80% Inhib. @” value was 8.843 µM.

By AC50 is commonly meant the concentration giving half of the maximal activity seen. A high value points to weaker potency. `CCOC(=O)[C@@H]1[C@H]2COc3cc(OC)ccc3[C@@H]2N2C(=O)N(c3ccc(C)cc3)C(=O)[C@@]12C` [MLS001066267-01]: the “percentage of mouse Th17 cells” value in experiment [1] (setting [8]) is 13.5 (at 10 uM) %. The “RORγ overexpression dependent IL17a production (in words)” value on RORγ was “inhibit”. In addition, on RORγ/γt [2], the AC50 worked out at 5010 nM, the IC50 was 5000 nM, the “Curve Class” value is recorded as −2.1 and the “80% Inhib. @” value is 10 µM.

Take `Cc1ccc(Sc2cncc3sc(C(N)=O)cc23)cc1` [NCGC00167761-02]: in experiment [1] (setting [6]), the “percentage of mouse Th17 cells” value came out at 11.6%. Besides, the “percentage of mouse Th17 cells” value in experiment [1] (setting [7]) is 3.6%. In addition, at RORγ/γt [2], inhibition was half-maximal at 281 nM (IC50) and the “80% Inhib. @” value turned out to be 0.7759 µM.

With `C[C@H]1[C@H](C)CC[C@]2(C(=O)O)CC[C@]3(C)C(=CC[C@@H]4[C@@]5(C)CC[C@H](O)C(C)(C)[C@@H]5CC[C@]43C)[C@H]12` [ursolic acid], the “effect on mouse Th17 cell differentiation / IL-17a in mouse CD4 T cells (in words)” value in experiment [1] (IL-6 and TGF-β) was “RORγt specific inhibitory effects”. For the same compound, in experiment [5], the “effect on human CD4 T cell cytokine production (in words)” value is “RORγt specific inhibitory effects”.

Take `CCOC(=O)[C@@H]1[C@H]2COc3ccc(Br)cc3[C@@H]2N2C(=O)N(c3ccccc3)C(=O)[C@@]12C` [MLS001066232-01]: the “activity of other closely related reporters (in words)” value in experiment [3] is given as “without affecting the activity”. Moreover, the “percentage of mouse Th17 cells” value in experiment [1] (setting [8]) was 10.4 (at 10 uM) %. Besides, the “RORγ overexpression dependent IL17a production (in words)” value at RORγ is “inhibit”. In addition, on RORγ/γt [2], half-maximal activity (AC50) was put at 10000 nM, the “Curve Class” value is recorded as −2.1 and the “RORγ/γt reporter activity (in words)” value is “inhibition of RORγ reporter”.

For the compound `O=C(/C=C/c1ccc(S(=O)(=O)N2CCOCC2)cc1)NC(=S)Nc1ccc(N2CCOCC2)cc1` [MLS000402315-02], the “percentage of mouse Th17 cells” value in experiment [1] (setting [7]) is reported as 4.8%. Besides, on RORγ/γt [2], the IC50 is 2610 nM and the “80% Inhib. @” value came to 7.292 µM.

On to `COc1ccc(C(=O)/C=C/c2ccc(OC)cc2OC)c(O)c1` [MLS001048850-02], for which the “percentage of mouse Th17 cells” value in experiment [1] (setting [7]) is given as 11.9%. Further, on RORγ/γt [2], half-maximal inhibition (IC50) required 543 nM and the “80% Inhib. @” value was determined as 1.646 µM.

For the compound `O=C(CCCOc1ccccc1)Nc1nc2ccccc2[nH]1` [MLS000772650-02], the “percentage of mouse Th17 cells” value in experiment [1] (setting [6]) came out at 16.9%. Besides, the “percentage of mouse Th17 cells” value in experiment [1] (setting [7]) came out at 9.9%. At RORγ/γt [2], the IC50 is 8670 nM and the “80% Inhib. @” value is 12.38 µM.
